Measured values: PMC12509006, “Synthesis and Evaluation of Pyridine-Based Antibacterial Agents that Inhibit ATP Synthase in Acinetobacter baumannii” (ACS Omega, 2025)
Values after ≈ are worked out from the molar mass of the structure shown. Read-outs that look alike come from different tables or passages of the source.

Experiments:
[1] = target: T1, A. baumannii ATP synthase (Acinetobacter baumannii, UniProt A3M139); test: AB ATP synthase inhibition: NADH-driven ATP synthesis in inverted inner membrane vesicles, luciferin/luciferase readout; assay type: biochemical; settings: for Hill coefficient (Hill slope): fit of ATP synthesis dose response curve
T1 construct: endogenous electron transport chains of inverted inner membrane vesicles were energized with NADH; endogenous in cells; host or cells: inverted inner membrane vesicles prepared from A. baumannii ATCC 17978 cells
T1 sequence (A3M139 whole entry): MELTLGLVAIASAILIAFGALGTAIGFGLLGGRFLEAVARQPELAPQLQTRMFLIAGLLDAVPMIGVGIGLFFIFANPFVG
Procedure: Once synthesized, the pyridine compounds were tested for their ability to inhibit ATP synthase activity using our previously reported luciferin/luciferase assay. Briefly, endogenous electron transport chains of inverted inner membrane vesicles were energized with NADH to generate a proton gradient and to drive ATP synthesis. ATP was measured via luminescence from the luciferase-catalyzed oxidation of D-luciferin. Luminescence activities across increasing inhibitor concentrations were corrected for gradient independent background sources of ATP by comparison with a control containing the protonophore CCCP (carbonyl cyanide 3-chlorophenylhydrazone). The data were then fit to a four-parameter logistic dose–response curve, from which IC50 values and Hill coefficients were determined using a nonlinear least-squares regression.
A. baumannii (ATCC 17978) cells were grown in LB medium at 37 °C with shaking at 150 rpm and harvested by centrifugation in the late exponential phase of growth. Cells were resuspended in TMG buffer (50 mM Tris-HCl, pH 7.5, 5 mM MgCl2, 10% v/v glycerol) with 1 mM phenylmethanesulfonyl fluoride, 1 mM dithiothreitol, and a small amount of DNase and lysed by two passes through an Avestin B15 homogenizer at 19,000 psi. Lysate was cleared by centrifugation at 9000g and inverted membrane vesicles were collected from the supernatant by centrifugation at 169,000g. To reduce background ATP synthesis activity in AB vesicles, it was important to wash the membranes by resuspending in TMG buffer and centrifuging again at 169,000g. Washed pellets were resuspended in TMG buffer, and aliquots were stored at −80 °C. Once thawed, aliquots were not refrozen. Protein concentration in membrane vesicles was determined using a modified Lowry assay.
In vitro ATP synthesis activity of inverted inner membrane vesicles was measured as previously described. A reaction solution was prepared containing 5 mM tricine-KOH, pH 8.0, 50 mM KCl, 2.5 mM MgCl2, 0.1 mM adenosine diphosphate, 3.75 mM potassium phosphate, and 2.5 mM NADH and distributed into a 96-well plate. NADH-driven ATP synthesis was initiated by addition of inverted vesicles to 50 μg/mL and allowed to proceed for 10 min. The reaction was stopped by transferring an aliquot into 1% trichloroacetic acid. The stopped reaction was diluted 100-fold with deionized water and a sample was transferred to luciferase solution containing 25 mM tricine-NaOH, pH 7.8, 5 mM MgSO4, 0.1 mM EDTA, 0.1 mM NaN3, 150 μg/mL luciferin, and 7.5 μg/mL luciferase. Luminescence was measured in an opaque white 96-well plate using a BioTek H1 multimode plate reader. Each replicate set included a positive control containing DMSO with no compound and a negative control containing carbonyl cyanide 3-chlorophenylhydrazone (CCCP). Luminescence values were corrected for background by subtracting the CCCP control and normalized to the luminescence of the DMSO control. Normalized activity was fit using a variable-slope dose response curve. Nonlinear regression, including prediction of 95% confidence bands, and pairwise comparisons of fits using the F-test method were completed using GraphPad Prism10. Relativeactivity=1/1+(c/IC50)^Hillslope […]
Figure S1. ATP synthesis inhibition by all pyridine compounds in order of WSA compound number. ATP synthesis activities in inverted inner membrane vesicles prepared from AB cells were measured in the presence of 0.0625-64 µg/mL, corrected for background ATP, and normalized to activity with DMSO alone (see methods). For each plot, dots are normalized activities at each concentration (n≥3) on a log 2 scale, solid lines are fitted dose response curves, and dashed lines show the 95% confidence range of the fit. IC50

MDR AB BAA 1605 = test: Broth microdilution antimicrobial susceptibility assay, MDR isolate; settings: Acinetobacter baumannii, BAA1605, read-out: MIC, MDR AB BAA 1605
HEK 293 cells = test: XTT cell viability cytotoxicity assay; settings: n = 3, 24 h treatment
AB ATCC 17978 [2] = test: Broth microdilution antimicrobial susceptibility assay, susceptible isolate; settings: Acinetobacter baumannii, ATCC17978, read-out: MIC, AB ATCC 17978
AB ATCC 17978 [3] = test: Checkerboard assay with colistin sulfate, ATCC 17978; settings: without partner drug
Procedure: (§1) Synthesized compounds in DMSO (2–128 μg/mL, row G-A) were combined with colistin sulfate in ultra purified water (0.125–32 μg/mL, column 2–10) in a 96-well microtiter plate checkerboard assay against ATCC 17978 and BAA-1605 (MDR). Briefly, liquid cultures of bacteria were grown for 14–16 h by inoculating a single bacterial culture into 10 mL TSB. To each well 88 μL of TSB, 10 μL of bacteria culture, and 1 from each master plate was added (see layout below). Plates were covered and incubated at 37 °C for 12–18 h.

AB BAA 1605 = test: Checkerboard assay with colistin sulfate, BAA 1605; settings: without partner drug
Procedure: as §1

[4] = Figure 2, read-out: IC50, AB ATP synthase inhibition (converted)
[5] = inverted inner membrane vesicles, 0.0625-64 µg/mL, n≥3, Table S1, read-out: AB ATP Synthase Inhibition IC50 (converted)

In the case of c1ccc(CSc2ncc(-c3ccccc3)cc2CNCc2ccc(CN3CCCC3)cc2)cc1 [WSA 294], the IC50 [1, 4] is reported as 1230 nM, the “Hill coefficient (Hill slope)” value [1] is reported as -0.7 and the MIC (MDR AB BAA 1605) is reported as 32 µg/mL (≈ 66.7 µM). For the same compound, the “MIC, HEK 293 (cytotoxicity)” value (HEK 293 cells) was 8 µg/mL (≈ 16.7 µM) and the MIC (AB ATCC 17978 [2]) was 32 µg/mL (≈ 66.7 µM).

In the case of Cc1ccc(-c2cnc(SCc3ccccc3)c(CNCc3ccc(CN4CCCC4)cc3)c2)cc1 [WSA 295], the “Hill coefficient (Hill slope)” value [1] is reported as -0.7, the IC50 [1, 5] is reported as 1090 nM and the MIC (MDR AB BAA 1605) is reported as 128 µg/mL (≈ 259 µM). The “MIC, HEK 293 (cytotoxicity)” value (HEK 293 cells) was 16 µg/mL (≈ 32.4 µM) and the MIC (AB ATCC 17978 [2]) was 32 µg/mL (≈ 64.8 µM).

For COc1ccc(-c2cnc(SCc3ccccc3)c(CNCc3ccc(CN4CCCC4)cc3)c2)cc1 [WSA 296], the IC50 [1, 4] was 863 nM, the “Hill coefficient (Hill slope)” value [1] was -0.6 and the MIC (MDR AB BAA 1605) was 128 µg/mL (≈ 251 µM). The “MIC, HEK 293 (cytotoxicity)” value (HEK 293 cells) was 16 µg/mL (≈ 31.4 µM) and the MIC (AB ATCC 17978 [2]) was 32 µg/mL (≈ 62.8 µM).

For COc1ccc(-c2cnc(SCc3ccccc3)c(CNCc3ccc(CN4CCCC4)cc3)c2)cc1F [WSA 297], the IC50 [1, 4] was 796 nM, the “Hill coefficient (Hill slope)” value [1] was -0.8 and the MIC (MDR AB BAA 1605) was 128 µg/mL (≈ 243 µM). The “MIC, HEK 293 (cytotoxicity)” value (HEK 293 cells) was 8 µg/mL (≈ 15.2 µM) and the MIC (AB ATCC 17978 [2]) was 32 µg/mL (≈ 60.6 µM).

For Fc1ccc(-c2cnc(SCc3ccccc3)c(CNCc3ccc(CN4CCCC4)cc3)c2)c(F)c1 [WSA 299], the “Hill coefficient (Hill slope)” value [1] was -1.1, the IC50 [1, 5] was 2130 nM and the MIC (MDR AB BAA 1605) was 128 µg/mL (≈ 248 µM). For the same compound, the “MIC, HEK 293 (cytotoxicity)” value (HEK 293 cells) was 16 µg/mL (≈ 31 µM) and the MIC (AB ATCC 17978 [2]) was 32 µg/mL (≈ 62.1 µM).

CCN1CCC(CCNCc2cc(-c3ccc(C)cc3)cnc2SCc2ccccc2)CC1 [WSA 300] was tested, and the “Hill coefficient (Hill slope)” value [1] was -0.7, the IC50 [1, 5] was 674 nM and the MIC (MDR AB BAA 1605) was 32 µg/mL (≈ 69.6 µM). The “MIC, HEK 293 (cytotoxicity)” value (HEK 293 cells) was 4 µg/mL (≈ 8.7 µM) and the MIC (AB ATCC 17978 [2]) was 16 µg/mL (≈ 34.8 µM).

Brc1cnc(SCc2ccccc2)c(CNCCC2CCN(C3CCCC3)CC2)c1 [WSA 301] was tested, and the “Hill coefficient (Hill slope)” value [1] was -0.5, the IC50 [1, 5] was 2660 nM and the MIC (MDR AB BAA 1605) was greater than 128 µg/mL. For the same compound, the “MIC, HEK 293 (cytotoxicity)” value (HEK 293 cells) was 16 µg/mL (≈ 32.8 µM) and the MIC (AB ATCC 17978 [2]) was 128 µg/mL (≈ 262 µM).

In the case of c1ccc(CSc2ncc(-c3ccccc3)cc2CNCCC2CCN(C3CCCC3)CC2)cc1 [WSA 302], the IC50 [1, 4] is reported as 988 nM, the “Hill coefficient (Hill slope)” value [1] is reported as -0.8 and the MIC (MDR AB BAA 1605) is reported as 64 µg/mL (≈ 132 µM). For the same compound, the “MIC, HEK 293 (cytotoxicity)” value (HEK 293 cells) was 16 µg/mL (≈ 32.9 µM) and the MIC (AB ATCC 17978 [2]) was 64 µg/mL (≈ 132 µM).

With CN(C)c1ccc(-c2cnc(SCc3ccccc3)c(CNCCC3CCN(C4CCCC4)CC3)c2)cc1 [WSA 303] the “Hill coefficient (Hill slope)” value [1] was -1.2, the IC50 [1, 5] was 1190 nM and the MIC (MDR AB BAA 1605) was 128 µg/mL (≈ 242 µM). For the same compound, the “MIC, HEK 293 (cytotoxicity)” value (HEK 293 cells) was 4 µg/mL (≈ 7.56 µM) and the MIC (AB ATCC 17978 [2]) was 64 µg/mL (≈ 121 µM).

In the case of CCN1CCC(CCNCc2cc(-c3ccccc3)cnc2SCc2ccccc2)CC1 [WSA 304], the “Hill coefficient (Hill slope)” value [1] is reported as -0.7, the IC50 [1, 5] is reported as 1370 nM and the MIC (MDR AB BAA 1605) is reported as 64 µg/mL (≈ 144 µM). For the same compound, the “MIC, HEK 293 (cytotoxicity)” value (HEK 293 cells) was 8 µg/mL (≈ 18 µM) and the MIC (AB ATCC 17978 [2]) was 32 µg/mL (≈ 71.8 µM).

With CCN1CCC(CCNCc2cc(-c3ccc(OC)cc3)cnc2SCc2ccccc2)CC1 [WSA 305] the “Hill coefficient (Hill slope)” value [1] was -0.6, the “Hill coefficient (Hill slope)” value ([1]; listed as WSA305) was -0.7 and the IC50 [1, 5] was 568 nM. For the same compound, the MIC (MDR AB BAA 1605) was 32 µg/mL (≈ 67.3 µM), the “MIC, HEK 293 (cytotoxicity)” value (HEK 293 cells) was 4 µg/mL (≈ 8.41 µM) and the MIC (AB ATCC 17978 [2]) was 32 µg/mL (≈ 67.3 µM).

In the case of CCN1CCC(CCNCc2cc(-c3ccc(OC)c(F)c3)cnc2SCc2ccccc2)CC1 [WSA 306], the “Hill coefficient (Hill slope)” value [1] is reported as -0.9, the IC50 [1, 5] is reported as 1070 nM and the MIC (MDR AB BAA 1605) is reported as 32 µg/mL (≈ 64.8 µM). The “MIC, HEK 293 (cytotoxicity)” value (HEK 293 cells) was 16 µg/mL (≈ 32.4 µM) and the MIC (AB ATCC 17978 [2]) was 32 µg/mL (≈ 64.8 µM).

CCN1CCC(CCNCc2cc(-c3ccc(F)cc3)cnc2SCc2ccccc2)CC1 [WSA 307] was tested, and the “Hill coefficient (Hill slope)” value [1] was -0.8, the IC50 [1, 5] was 1160 nM and the MIC (MDR AB BAA 1605) was 32 µg/mL (≈ 69 µM). The “MIC, HEK 293 (cytotoxicity)” value (HEK 293 cells) was 8 µg/mL (≈ 17.3 µM) and the MIC (AB ATCC 17978 [2]) was 32 µg/mL (≈ 69 µM).

In the case of CCN1CCC(CCNCc2cc(-c3ccc(F)cc3F)cnc2SCc2ccccc2)CC1 [WSA 308], the “Hill coefficient (Hill slope)” value [1] is reported as -0.9, the IC50 [1, 5] is reported as 1810 nM and the MIC (MDR AB BAA 1605) is reported as 64 µg/mL (≈ 133 µM). The “MIC, HEK 293 (cytotoxicity)” value (HEK 293 cells) was 16 µg/mL (≈ 33.2 µM) and the MIC (AB ATCC 17978 [2]) was 32 µg/mL (≈ 66.4 µM).

For colistin [reference compound], the “MIC alone, AB ATCC 17978” value (AB ATCC 17978 [3]) was 2 µg/mL and the “MIC alone, AB BAA 1605” value (AB BAA 1605) was 1 µg/mL.
